The experiment concerns the target T1, PE-labeled human PD-L1-Ig binding to Jurkat cell line over-expressing human PD-1 (Jurkat-PD-1) (Homo sapiens, UniProt Q15116).
T1 construct: expressed in transfected cells; host or cells: Jurkat
The experiment in a line: Jurkat-PD-1 Cell Binding High-Content Screening Assay (CBA): Method 1. The following applies: Jurkat-hPD-1 cells, PE-labeled PD-L1-Ig 20 nM final; read-out: Jurkat HPDL1 PD1 IC50 (uM) (Method 1).

Bridge positions count the residues as written; N and C are the ends. Square brackets hold non-standard residues; d marks the D form. Peptide text beside a SMILES is read from it. * marks the point of attachment. ξ: configuration not given here. Phe(3-allyloxy) = C=CCOc1cccc(C[C@H](N)C(=O)O)c1; Phe(4-COOH) = N[C@@H](Cc1ccc(C(=O)O)cc1)C(=O)O; Bip = N[C@@H](Cc1ccc(-c2ccccc2)cc1)C(=O)O; Phe(3-Me) = Cc1cccc(C[C@H](N)C(=O)O)c1; NMePhg = CN[C@H](C(=O)O)c1ccccc1; 4Pal = N[C@@H](Cc1ccncc1)C(=O)O; Cha = N[C@@H](CC1CCCCC1)C(=O)O; Cit = NC(=O)NCCC[C@H](N)C(=O)O; NMeD = CN[C@@H](CC(=O)O)C(=O)O; Thr(3ξ) = CC(O)[C@H](N)C(=O)O; Carboxymethyl = O=C(O)C*; NMeA = CN[C@@H](C)C(=O)O; Nle = CCCC[C@H](N)C(=O)O; Dab = NCC[C@H](N)C(=O)O; Dap = NC[C@H](N)C(=O)O; Piv = CC(C)(C)C(=O)*

The record followed here is patent US20240409585A1, “MACROCYCLIC IMMUNOMODULATORS” (priority 2021, published 2024).

T1 sequence (Q15116 25-288): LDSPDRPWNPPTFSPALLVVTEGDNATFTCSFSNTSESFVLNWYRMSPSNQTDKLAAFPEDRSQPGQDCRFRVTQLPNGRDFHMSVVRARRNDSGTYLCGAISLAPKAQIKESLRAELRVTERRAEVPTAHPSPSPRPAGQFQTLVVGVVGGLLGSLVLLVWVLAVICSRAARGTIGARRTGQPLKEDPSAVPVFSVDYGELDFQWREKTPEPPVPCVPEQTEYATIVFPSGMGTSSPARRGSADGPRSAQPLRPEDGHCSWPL

In the case of `CC(C)C[C@@H]1NC(=O)[C@H](C(C)C)NC(=O)[C@H](Cc2ccccc2)NC(=O)[C@H](CC(=O)O)N(C)C(=O)[C@H](CCCNC(=N)N)NC(=O)[C@H](Cc2ccc(-c3ccccc3)cc2)NC(=O)[C@H](C(C)C)NC(=O)[C@H](Cc2c[nH]c3ccccc23)NC(=O)[C@H](CC(=O)O)NC(=O)[C@H](Cc2ccc(O)cc2)NC(=O)[C@H](Cc2ccccc2)NC(=O)CSC[C@@H](C(=O)NCC(N)=O)NC(=O)[C@H](CO)NC(=O)[C@H](C(C)C)NC1=O` [Compound 1008] ({CH2CO}-FYDWV[Bip]R[NMeD]FVLVSCG-NH2; thioether N-14), the IC50 turned out to be 0.7 µM. Consider `Cc1cccc(C[C@@H]2NC(=O)[C@H](CC(=O)O)NC(=O)[C@H](Cc3ccc(OCC(=O)O)cc3)NC(=O)[C@H](C(C)O)NC(=O)CSC[C@@H](C(=O)N[C@@H](CCN)C(N)=O)NC(=O)[C@H](C(C)O)NC(=O)[C@H](C(C)C)NC(=O)[C@H](CC3CCCCC3)NC(=O)[C@H](CCN)NC(=O)[C@@H](CC(C)C)NC(=O)[C@H](C)N(C)C(=O)[C@H](Cc3ccc(OCC(=O)O)cc3)NC(=O)[C@H](Cc3ccc(-c4ccccc4)cc3)NC(=O)[C@H](Cc3ccc(C(=O)O)cc3)NC2=O)c1` (stereo partly drawn) [Compound 2115] ({CH2CO}-[Thr(3ξ)]Y(Carboxymethyl)D[Phe(3-Me)][Phe(4-COOH)][Bip]Y(Carboxymethyl)[NMeA][dL][Dab][Cha]V[Thr(3ξ)]C[Dab]-NH2; thioether N-14), for which the IC50 turned out to be 0.01 µM. In the case of `CCCC[C@@H]1NC(=O)[C@H](CC(N)=O)NC(=O)[C@@H](C)NC(=O)[C@H](C)N(C)C(=O)[C@H](C(C)C)NC(=O)[C@H](Cc2ccc(-c3ccccc3)cc2)NC(=O)[C@H](CC(C)C)NC(=O)[C@H](Cc2c[nH]c3ccccc23)NC(=O)[C@H](CC(=O)O)NC(=O)[C@H](Cc2ccc(O)cc2)NC(=O)[C@H](Cc2ccccc2)NC(=O)CSC[C@@H](C(=O)N[C@@H](C)C(N)=O)NC(=O)[C@H]([C@@H](C)O)NC(=O)[C@H](CCCCN)NC1=O` [Compound 1790] ({CH2CO}-FYDWL[Bip]V[NMeA][dA]N[Nle]KTCA-NH2; thioether N-14), the IC50 is 0.13 µM. With `CCCC[C@@H]1NC(=O)[C@H](Cc2ccc(-c3ccccc3)cc2)NC(=O)[C@H](C(C)C)NC(=O)[C@H](Cc2c[nH]c3ccccc23)NC(=O)[C@H](CC(=O)O)NC(=O)[C@H](Cc2ccc(O)cc2)NC(=O)[C@H](CC(N)=O)NC(=O)CSC[C@@H](C(=O)N[C@@H](C)C(N)=O)NC(=O)[C@H]([C@@H](C)O)NC(=O)[C@H](C(C)C)NC(=O)[C@H](CC(C)C)NC(=O)[C@H](CCN)NC(=O)[C@@H](CC(C)C)NC(=O)[C@H](C)N(C)C1=O` [Compound 1271] ({CH2CO}-NYDWV[Bip][Nle][NMeA][dL][Dab]LVTCA-NH2; thioether N-14), the IC50 came to 0.03 µM. `CC(C)C[C@H]1NC(=O)[C@H](C)N(C)C(=O)[C@H](CCCNC(=N)N)NC(=O)[C@H](Cc2ccc(-c3ccccc3)cc2)NC(=O)[C@H](C(C)C)NC(=O)[C@H](Cc2c[nH]c3ccccc23)NC(=O)[C@H](CC(=O)O)NC(=O)[C@H](Cc2ccc(O)cc2)NC(=O)[C@H](Cc2ccccc2)NC(=O)CSC[C@@H](C(=O)N[C@@H](C)C(N)=O)NC(=O)[C@H]([C@@H](C)O)NC(=O)[C@H](C(C)C)NC(=O)[C@H](CC2CCCCC2)NC(=O)[C@H](CCCNC(=N)N)NC1=O` [Compound 1115] ({CH2CO}-FYDWV[Bip]R[NMeA][dL]R[Cha]VTCA-NH2; thioether N-14): the half-maximal inhibitory concentration (IC50) is 0.05 µM. Next, `Cc1cccc(C[C@@H]2NC(=O)[C@H](CC(=O)O)NC(=O)[C@H](Cc3ccc(C(=O)O)cc3)NC(=O)[C@H](Cc3ccc(OCC(=O)O)cc3)NC(=O)CSC[C@@H](C(=O)N[C@@H](CCC(=O)O)C(N)=O)NC(=O)[C@H](CO)NC(=O)[C@H](C(C)C)NC(=O)[C@H](CC(C)C)NC(=O)[C@H](CC(N)=O)NC(=O)[C@@H](CC(C)C)NC(=O)[C@H](C)N(C)C(=O)[C@H](C(C)C)NC(=O)[C@H](Cc3ccc(-c4ccccc4)cc3)NC(=O)[C@H](CC(C)C)NC2=O)c1` [Compound 1604] ({CH2CO}-Y(Carboxymethyl)[Phe(4-COOH)]D[Phe(3-Me)]L[Bip]V[NMeA][dL]NLVSCE-NH2; thioether N-14): 0.01 µM; `CC(C)C[C@@H]1NC(=O)[C@H](CCN)NC(=O)[C@@H](CC(C)C)NC(=O)[C@H](c2ccccc2)N(C)C(=O)[C@H](C(C)C)NC(=O)[C@H](Cc2ccc(-c3ccccc3)cc2)NC(=O)[C@H](C(C)C)NC(=O)[C@H](Cc2c[nH]c3ccccc23)NC(=O)[C@H](CC(=O)O)NC(=O)[C@H](Cc2ccc(O)cc2)NC(=O)[C@H](CC(N)=O)NC(=O)CSC[C@@H](C(=O)N[C@@H](C)C(N)=O)NC(=O)[C@H]([C@@H](C)O)NC(=O)[C@H](C(C)C)NC1=O` [Compound 1366] ({CH2CO}-NYDWV[Bip]V[NMePhg][dL][Dab]LVTCA-NH2; thioether N-14): 0.03 µM.

Take `CC(C)C[C@@H]1NC(=O)[C@H](Cc2c[nH]c3ccccc23)NC(=O)[C@H](CC(=O)O)NC(=O)[C@H](Cc2ccc(O)cc2)NC(=O)[C@H](Cc2ccccc2)NC(=O)CSC[C@@H](C(=O)NCC(N)=O)NC(=O)[C@H](CO)NC(=O)[C@H](C(C)C)NC(=O)[C@H](CC(C)C)NC(=O)[C@H](CC(=O)O)NC(=O)[C@H](CC(C)C)NC(=O)[C@H](C)N(C)C(=O)[C@H](C(C)C)NC(=O)[C@H](Cc2ccc(-c3ccccc3)cc2)NC1=O` [Compound 1824] ({CH2CO}-FYDWL[Bip]V[NMeA]LDLVSCG-NH2; thioether N-14): the IC50 amounted to 0.63 µM. As to `CC(C)C[C@@H]1NC(=O)[C@H](Cc2c[nH]c3ccccc23)NC(=O)[C@H](CC(=O)O)NC(=O)[C@H](Cc2ccncc2)NC(=O)[C@H](CN)NC(=O)CSC[C@@H](C(=O)N[C@@H](C)C(N)=O)NC(=O)[C@H](CO)NC(=O)[C@H](C(C)C)NC(=O)[C@H](CC(C)C)NC(=O)[C@H](CC(N)=O)NC(=O)[C@@H](C)NC(=O)[C@H](C)N(C)C(=O)[C@H](C(C)C)NC(=O)[C@H](Cc2ccc(-c3ccccc3)cc2)NC1=O` [Compound 1561] ({CH2CO}-[Dap][4Pal]DWL[Bip]V[NMeA][dA]NLVSCA-NH2; thioether N-14), the IC50 came out at 0.03 µM.

`CC(C)C[C@@H]1NC(=O)[C@H](CCN)NC(=O)[C@@H](CC(C)C)NC(=O)[C@H](C)N(C)C(=O)[C@H](CCCNC(N)=O)NC(=O)[C@H](Cc2ccc(-c3ccccc3)cc2)NC(=O)[C@H](C(C)C)NC(=O)[C@H](Cc2c[nH]c3ccccc23)NC(=O)[C@H](CC(=O)O)NC(=O)[C@H](Cc2ccc(OCC(=O)O)cc2)NC(=O)[C@H](CN)NC(=O)CSC[C@@H](C(=O)N[C@@H](C)C(N)=O)NC(=O)[C@H]([C@@H](C)O)NC(=O)[C@H](C(C)C)NC1=O` [Compound 1566] ({CH2CO}-[Dap]Y(Carboxymethyl)DWV[Bip][Cit][NMeA][dL][Dab]LVTCA-NH2; thioether N-14): the 50% inhibitory concentration (IC50) worked out at 0.04 µM. Next, `C=CCOc1cccc(C[C@@H]2NC(=O)[C@H](Cc3ccccc3)NC(=O)CSC[C@@H](C(=O)N[C@@H](C)C(N)=O)NC(=O)[C@H](CO)NC(=O)[C@H](C(C)C)NC(=O)[C@H](CC(C)C)NC(=O)[C@H](CC(N)=O)NC(=O)[C@@H](C)NC(=O)[C@H](C)N(C)C(=O)[C@H](C(C)C)NC(=O)[C@H](Cc3ccc(-c4ccccc4)cc3)NC(=O)[C@H](CC(C)C)NC(=O)[C@H](Cc3c[nH]c4ccccc34)NC(=O)[C@H](CC(=O)O)NC2=O)c1` [Compound 1772] ({CH2CO}-F[Phe(3-allyloxy)]DWL[Bip]V[NMeA][dA]NLVSCA-NH2; thioether N-14): 0.04 µM; `CC(C)C[C@@H]1NC(=O)[C@H](Cc2c[nH]c3ccccc23)NC(=O)[C@H](CC(=O)O)NC(=O)[C@H](Cc2ccc(OCC(=O)O)cc2)NC(=O)[C@H](Cc2ccccc2)NC(=O)CSC[C@@H](C(N)=O)NC(=O)[C@H](CO)NC(=O)[C@H](C(C)C)NC(=O)[C@H](CC(C)C)NC(=O)[C@H](CC(N)=O)NC(=O)[C@@H](CC(C)C)NC(=O)[C@H](C)N(C)C(=O)[C@H](CCC(=O)O)NC(=O)[C@H](Cc2ccc(-c3ccccc3)cc2)NC1=O` [Compound 1628] ({CH2CO}-FY(Carboxymethyl)DWL[Bip]E[NMeA][dL]NLVSC-NH2; thioether N-14): 0.09 µM. Next, `Cc1cccc(C[C@@H]2NC(=O)[C@H](CC(=O)O)NC(=O)[C@H](Cc3ccc(OCC(=O)O)cc3)NC(=O)[C@H](Cc3ccncc3)NC(=O)CSC[C@@H](C(=O)N[C@@H](CCN)C(N)=O)NC(=O)[C@H]([C@@H](C)O)NC(=O)[C@H](C(C)C)NC(=O)[C@H](CC3CCCCC3)NC(=O)[C@H](CCNC(=O)C(C)(C)C)NC(=O)[C@@H](CC(C)C)NC(=O)[C@H](C)N(C)C(=O)[C@H](Cc3ccc(OCC(=O)O)cc3)NC(=O)[C@H](Cc3ccc(-c4ccccc4)cc3)NC(=O)[C@H](Cc3ccc(OCC(=O)O)cc3)NC2=O)c1` [Compound 1865] ({CH2CO}-[4Pal]Y(Carboxymethyl)D[Phe(3-Me)]Y(Carboxymethyl)[Bip]Y(Carboxymethyl)[NMeA][dL][Dab](Piv)[Cha]VTC[Dab]-NH2; thioether N-14): 0.02 µM.

As for `Cc1cccc(C[C@@H]2NC(=O)[C@H](CC(=O)O)NC(=O)[C@H](Cc3ccc(C(=O)O)cc3)NC(=O)[C@H](Cc3ccc(OCC(=O)O)cc3)NC(=O)CSC[C@@H](C(=O)N[C@@H](C)C(N)=O)NC(=O)[C@H]([C@@H](C)O)NC(=O)[C@H](C(C)C)NC(=O)[C@H](CC(C)C)NC(=O)[C@H](CCN)NC(=O)[C@@H](CC(C)C)NC(=O)[C@H](C)N(C)C(=O)[C@H](C(C)C)NC(=O)[C@H](Cc3ccc(-c4ccccc4)cc3)NC(=O)[C@H](C(C)C)NC2=O)c1` [Compound 1571] ({CH2CO}-Y(Carboxymethyl)[Phe(4-COOH)]D[Phe(3-Me)]V[Bip]V[NMeA][dL][Dab]LVTCA-NH2; thioether N-14), the IC50 was found to be 0.01 µM.

As for `CC(C)C[C@@H]1NC(=O)[C@H](CCN)NC(=O)[C@@H](CC(C)C)NC(=O)[C@H](C)N(C)C(=O)[C@H](CCCNC(N)=O)NC(=O)[C@H](Cc2ccc(-c3ccccc3)cc2)NC(=O)[C@H](C(C)C)NC(=O)[C@H](Cc2c[nH]c3ccccc23)NC(=O)[C@H](CC(=O)O)NC(=O)[C@H](Cc2ccc(O)cc2)NC(=O)[C@H](CCCCN)NC(=O)CSC[C@@H](C(=O)N[C@@H](C)C(N)=O)NC(=O)[C@H]([C@@H](C)O)NC(=O)[C@H](C(C)C)NC1=O` [Compound 1348] ({CH2CO}-KYDWV[Bip][Cit][NMeA][dL][Dab]LVTCA-NH2; thioether N-14), the half-maximal inhibitory concentration (IC50) was determined as 0.05 µM.
